Experimental data as given in US11844776B2, “Composition for treatment and/or prevention of peripheral nerve disorder” (OSAKA CITY UNIVERSITY, priority 2016, dated 2023).

How the values were obtained:
[1] = system: sciatic nerve injury model mice; experiment: Functional analysis of sciatic nerves in sciatic nerve injury models; type: in vivo, mouse
Protocol: To investigate the effect of SNJ1945 on promoting peripheral nerve regeneration, mouse sciatic nerve injury models were prepared and histologically analyzed. The models were used as sciatic nerve injury model mice produced according to the method of Wall et al. (Wall, 1979). More specifically, model mice were produced in the following manner. Four-week-old female mice were subjected to general anesthesia with sevoflurane inhalation anesthesia (Mylan N.V.) and laid down in a prone position. The skin on the femur was incised. The muscle layer was peeled off carefully and quickly so as not to injure the sciatic nerve. The nerve was severed (completely injured) at mid-thigh at one point with an interval of 40 mm from the periphery. The muscle layer and the skin were then sutured and disinfected. The mice were used as complete nerve injury model mice. Administration of SNJ1945 was performed by mixing SNJ-1945 into a diet (CE-2, CLEA Japan, Inc.) and orally administering the mixture continuously to each mouse in an amount of 200 μg of SNJ1945/per gram of body weight/day. […]
To further investigate the peripheral nerve regeneration promotion effect of SNJ1945, motor function of sciatic nerve injury model mice was evaluated based on the sciatic function index (SFI) and print length factor (PLI) using Footprint (Bain et al., 1989).

[2] = system: LIS1 protein; experiment: Expression amount of LIS1 protein in dorsal root ganglion neurons by western blotting; type: cell-based, mouse; conditions: 200 μM
Protocol: Dorsal root ganglion neurons were isolated from mice (3 days old or 15 days old) and the expression amount of LIS1 protein was analyzed in the order of time sequence from initiation of culture. Protein extraction was performed by adding 100 μl of a protein-dissolving liquid (30 mM Tris-HCl, pH 6.8, 1.5% sodium dodecyl sulfate (SDS), 0.3% bromophenol blue (BPB), 0.3% 2-mercapto-ethanol (2-ME), and 15% glycerol) per 5×10^4 dorsal root ganglion neurons and further performing ultrasonic treatment to achieve complete solubilization. After the heat treatment at 95° C. for 5 minutes, 1 μl of the obtained protein lysate was separated by 12.5% SDS-acrylamide electrophoresis and subjected to western blotting using anti-LIS1 antibody to detect LIS protein (the left-side figure in FIG. 2). The intensity of the detected band was analyzed (after correction with the intensity of the GAPDH band), and the expression ratio of LIS protein was determined (right-side figure in FIG. 2). […]
After the incubation, the procedures were performed in the same manner as described above in the “Analysis of Expression Amount of LIS1 Protein in Dorsal Root Ganglion Neurons” section to detect LIS protein by western blotting (the left-side figure in FIG. 5). Further, the intensity of the detected band was analyzed to determine the expression ratio of the LIS protein (the right-side figure in FIG. 5).

[3] = system: dorsal root ganglion neurons; experiment: Effect of SNJ1945 on axon elongation in mouse dorsal root ganglion neurons; type: cell-based; conditions: 200 μM, 24 or 48 hours, vs 1% DMSO
Protocol: Dorsal root ganglions were aseptically extracted from postnatal mice (3, 10, or 15 days old) under a stereoscopic microscope, and tissue fragments were dispersed by gentle pipetting and then treated with 0.025% trypsin/0.0013% DNaseI (both being final concentrations) at 37° C. for 20 minutes. After centrifugation, a BME culture solution (Gibco) containing 10% equine blood serum was added, and washing was performed. After the enzyme reaction was stopped, a BME culture solution containing 0.0052% DNaseI/10% equine blood serum (both being final concentrations) was added, and pipetting was performed. […] After incubation for another 15 minutes at room temperature, the resulting aggregates were washed well and carefully embedded using glycerol for fluorescence microscope observation (Merck) so as not to break up the aggregates. […] Dorsal root ganglion neurons were also isolated from LIS1 hetero mice (3 days old) and analyzed in the same manner.
Dorsal root ganglion neurons were isolated from 3-day-old mice or 15-day-old mice, and the correlation between the presence or absence of SNJ1945 addition and axon length was analyzed. […]

[4] = system: LIS1 protein; conditions: disclosed in WO2012/074120; based on calpain inhibitory activity; cited from earlier work
[5] = system: sciatic nerve injury model mice; experiment: Histological analysis of sciatic nerves in sciatic nerve injury models; type: in vivo, mouse
Protocol: To investigate the effect of SNJ1945 on promoting peripheral nerve regeneration, mouse sciatic nerve injury models were prepared and histologically analyzed. The models were used as sciatic nerve injury model mice produced according to the method of Wall et al. (Wall, 1979). More specifically, model mice were produced in the following manner. Four-week-old female mice were subjected to general anesthesia with sevoflurane inhalation anesthesia (Mylan N.V.) and laid down in a prone position. The skin on the femur was incised. The muscle layer was peeled off carefully and quickly so as not to injure the sciatic nerve. The nerve was severed (completely injured) at mid-thigh at one point with an interval of 40 mm from the periphery. The muscle layer and the skin were then sutured and disinfected. The mice were used as complete nerve injury model mice. Administration of SNJ1945 was performed by mixing SNJ-1945 into a diet (CE-2, CLEA Japan, Inc.) and orally administering the mixture continuously to each mouse in an amount of 200 μg of SNJ1945/per gram of body weight/day. Mice that were subjected to the same complete nerve injury and maintained on a diet not containing SNJ1945 (CE-2, CLEA Japan, Inc.) were used as a control group.
For histological analysis, after the mice were sacrificed by cervical dislocation, sciatic nerves were removed and fixed in 4% paraformaldehyde for 24 hours. After the paraformaldehyde was replaced with PBS, the sciatic nerves were embedded in paraffin. The tissue block was cut into 5-μm-thick sections and each tissue section was adhered onto a glass slide. For hematoxylin and eosin staining, each tissue section was 1) deparaffinized, 2) washed with water, 3) stained with Mayer's or Carrazzi's hematoxylin, 4) lightly washed with running water, 5) allowed to develop color, 6) stained with an eosin solution for 1 minute, and 7) subjected to dehydration, clearing, and embedding; and morphologically observed under an optical microscope.
Samples for observation under an electron microscope were prepared in the following manner. Sciatic nerves were removed in the same manner as above and then placed in a fixative (2.5% glutaraldehyde). Ten minutes after being placed in the fixative, the sciatic nerves were removed and placed in several drops of the fixative that had been dropped on a thick plastic sheet beforehand, and cut into thin sections. Post-fixation was performed using an aqueous osmium tetroxide solution. Next, free water contained in the tissue was replaced with ethyl alcohol. In order to make ultrathin sections, the tissue was embedded in an epoxy resin, and tissue sections were produced with an ultramicrotome. Observation was performed using a transmission electron microscope (Hitachi Ltd.: H-7500).

[6] = complete nerve injury model, oral in diet 200 μg/g body weight/day, 1 week after administration, vs control group

With COCCOCCOC(=O)N[C@@H](CC(C)C)C(=O)N[C@@H](Cc1ccccc1)C(=O)C(=O)NC1CC1 [Compound 17, ((1S)-1-((((1S)-1-Benzyl-2,3-dioxo-3-(cyclopropylamino)propyl)amino)carbonyl)-3-methylbutyl)carbamic acid 5-methoxy-3-oxapentyl ester] the “condition of the paw” value ([1]; complete injury model, one month after administering, vs control group mouse) was “recovered to the extent that the mouse could grasp the cage”, the “recovery of complete nerve injury models (motor function)” value ([1]; continuous administration) was “further promoted recovery” and the “expression amount of LIS1 protein” value ([2]; neurons from 3-day-old mice) was “not able to significantly increase the expression amount”. For the same compound, the “expression amount of LIS1 protein” value ([2]; neurons from 15-day-old mice) was “significantly increased the expression amount of LIS1”, the “axon elongation (axon length)” value ([3]; neurons from 3-day-old mice) was “axon elongation promotion effect” and the “axon elongation (axon length)” value ([3]; neurons from 15-day-old mice) was “significant axon elongation promotion effect”. The “effect of amplifying LIS1 protein” value [4] was “has an effect of amplifying LIS1 protein”, the “myelin regeneration in sciatic nerves after nerve cell degeneration” value ([5]; administration started 1 week after severance, analyzed 1 month after severance) was “significantly high myelin regeneration” and the “recovery of myelin (electron microscope)” value [5, 6] was “recovery of myelin”. For the same compound, the “recovery of sciatic nerves (hematoxylin and eosin staining)” value [5, 6] was “significant recovery of sciatic nerves” and the “number of myelin whose recovery was recognized (regeneration of myelin in sciatic nerves)” value ([5]; complete nerve injury model, oral in diet, FIG. 24, vs control group) was “significantly high regeneration of myelin”.
